Measured values published in US20090325863A1, “Somatostatin analogs and IGF-I inhibition for breast cancer prevention” (priority 2008, published 2009).
“Also recorded” adds a separate entry of the source. Marks after values point to notes of the source that are not given here. Bridges are numbered along the chain shown (N, C = ends). Where no end group is shown, it is not given here.

How the values were obtained:
[1] = test system: hGH induced TEB formation; assay: Hyperplastic terminal endbuds (TEBs) in mammary gland whole mounts, hGH+E2 model; format: in vivo, rat; conditions: hGH+E2, 7 days; reduced from 86.5 (86) TEBs in hGH+E2 control
Text: At the end of 7 days one lumbar mammary gland was removed for whole mount analysis and the other for histological analysis. Hyperplastic TEBs were counted in the whole mounts. […] Representative photomicrographs of the whole mounts are provided in FIG. 5 and suppression by the different treatments is shown graphically in FIG. 6.

[2] = test system: mammary hyperplasia induced by hGH and E2; assay: Mammary hyperplasia model induced by hGH and E2, counts in histological sections; format: in vivo, rat; conditions: for Total# / Mild# / Moderate# / Florid# / DH#: Table 3; for Total#: SOM230 30 mcg/h/kg, Octreotide 30 mcg/hr/kg, Tamoxifen 30 mg/21 day release pellet, GH + E2 control 88.3 ± 6.3; for Mild# / Moderate# / Florid# / DH#: same doses; for Mild#: GH + E2 control 4.4 ± 0.6; for Moderate#: GH + E2 control 5.3 ± 0.6; for Florid#: GH + E2 control 10 ± 0.7; for DH#: GH + E2 control 19.7 ± 1.5; for inhibitory effect on hyperplasia compared with SOM230 alone (in words): hGH+E2 model, 7 days, no dose response comparison
Text: To test whether SOM230, a drug that inhibits IGF-I action on the breast, was effective, we implemented a model of hyperplasia and then determined whether the hyperplasia could be inhibited by SOM230. We administered human growth hormone (600 mcg in alzet pumps) for a week, and gave this together with estradiol (an estrogen). At the end of 7 days florid hyperplasia developed. Mammary hyperplasia was modeled by treating hypophysectomized, oophorectomized female rats with high doses human growth hormone (hGH) (600 μg in Alzet pumps) and follicular phase concentrations of estradiol (E2) administered in silastic capsules for 7 days. In the absence of hGH, these animals would not undergo mammary development. In animals receiving E2 alone, there was virtually no hyperplasia. When hGH was added to E2 there were more glands (42.2±1.4 vs. 71.9±5.4, E2 vs. E2+hGH, respectively). There was no florid hyperplasia with E2 treatment. When hGH was given also, 26.6% of the glands were hyperplastic, with 50% of those being floridly hyperplastic, 7% moderate hyperplasia and 5.9% mild hyperplasia. […] This is shown in histological sections (FIG. 1), graphically (FIG. 2) and in tabular form below (TABLE 1).
Background: Antiestrogens or aromatase inhibitors are used for breast cancer chemoprevention. These treatments cause unpleasant side effects including hot flashes and vaginal dryness. We have previously shown that IGF-I is required to permit estrogen and progesterone action in the mammary gland. […] Menopausal symptoms would not likely to occur with SOM230 since estrogen is not lowered. Material and Methods: We have approached this issue in several ways. 1) We developed a model of hyperplasia in hypophysectomized and oophorectomized female rats. Hyperplasia was induced by treatment with 600 mcg hGH and follicular phase concentrations of estradiol. Hyperplasia was assessed histologically in sections of mammary gland. 2) To assess translatability to humans we assessed cell proliferation and apoptosis in normal human breast from reduction mammoplasties and samples of usual hyperplasia. 3) We also determined availability of SST receptors in samples of atypical ductal hyperplasia and DCIS, and 4) We have begun to determine whether SOM230 will prevent hyperplasia in humans at risk for breast cancer as it does in rats.
The degree of hyperplasia was analyzed in 3 histological sections at different levels in 3 test animals given GH+E2. The different types of hyperplasia were counted. For example, the total mean number of ducts was 88.3. Of those ducts, there were 19.7 or 22.3% of total ducts that were hyperplastic. The breakdown was a mean of 10 ducts with florid hyperplasia (lumen is distended and mostly obliterated by epithelial cells), a mean of 5.3 ducts with moderate hyperplasia (an increase in cell layers to >4 cells thick), and a mean of 4.4 characterized as mild hyperplasia (no more than 4 cell thickness).
There were 4 additional treatment groups and one E2 treated control group.

[3] = test system: pYIRS-1 (phosphorylated IRS-1), product of IGF-I action; assay: Immunostaining for phosphorylated IRS-1 in mammary gland, hGH+E2 model; format: in vivo, rat; conditions: hGH+E2 treated animals; staining most intense with hGH+E2
Text: FIG. 12 depicts immunostaining for pYIRS-1 (phosphorylated IRS-1) in a representative E2 treated control (upper left), an hGH+E2 treated animal (upper right), an hGH+E2+SOM230 treated animal (lower left) and an hGH+E2+tamoxifen treated animal (lower right). The intensity of staining parallels IGF-I action as phosphorylated IRS-1 is a product of IGF-I action. In this study, staining (brown color) was most intense in response to hGH+E2 and was inhibited by both SOM230 and tamoxifen. […] This reflection of inhibition of IGF-I activity also supports the greater inhibitory effect of SOM230 over that of tamoxifen.

[4] = test system: development of breast cancer; conditions: women with hyperplastic lesions of the breast; cited from earlier work
mammary development = assay: Mammary development of CD female mice (TEB, branch, area in whole mounts); format: in vivo
Method: The effect of PQ401 and Somatostatin 14 (SS14) on mammary development of CD female mice was determined. FIG. 10 depicts control animals at 21 and 28 days versus 28 day old animals treated with PQ401 for 7 days and 28 day old animals treated with SS14 for 7 days.

Compound	number of hyperplastic TEBs in whole mounts [1]	Total# [2]	Mild# [2]	Moderate# [2]	Florid# [2]	DH# [2]	inhibitory effect on hyperplasia compared with SOM230 alone (in words) [2]	intensity of pYIRS-1 immunostaining [3]	prevention of the development of cancer [4]	inhibitory effect on hyperplasia compared with SOM230 alone (in words) ([2]; listed as tamoxifen)	TEB (number) (mammary development; 28 day old CD female mice treated 7 days, PQ401 100/kgbw ip thrice weekly, SS14 15 mcg/hr/Kg Alzet pump, 28d control 18.6 ± 1.5)	area % (mammary development; same treatment, 28d control 52.2 ± 2.0, 21d control 23 ± 3.2)
Octreotide	60	76.3 ± 7.3	4.6 ± 0.8	5.8 ± 1.0	5.0 ± 0.8^e	15.4 ± 2.6	significantly lower than SOM230 alone					
CC/C(=C(\c1ccccc1)c1ccc(OCCN(C)C)cc1)c1ccccc1 [Tamoxifen]	49	74.2 ± 7.7	3.6 ± 0.4	4.8 ± 0.6	4.5 ± 0.6^e	12.4 ± 1.5	significantly less effective than SOM230	inhibited; also recorded: more intense than in the SOM230 treated one	about 50%	significantly lower than SOM230 alone		
Somatostatin 14: Somatostatin 14 (SS14) (AGCKNFFWKTFTSC; disulfide 3-14; ends not checked; UniProt P61278 103-116, looked up)											18.5 ± 1.5	36.3 ± 6.2%
